Measurements reported in patent US20050013914A1, “Method of sustaining aroma and use thereof” (priority 2001, published 2005).

Key:
Format in all cases: physicochemical
[1] = Adsorption of liquid ethanol or acetic acid on saccharide powder (Example C-1); conditions: until mixture did not keep a powder form; for Amount of Adsorbed Acetic Acid: acetic acid adsorbed on 1 g of saccharide; for Amount of Adsorbed Ethanol: ethanol adsorbed on 1 g of saccharide
Text: CTS crystalline pentahydrate, prepared by the method described in Example B-3, CTS crystalline monohydrate, prepared by the method described in Example B-4, CTS crystalline anhydrate, prepared by the method described in Example B-5, or CTS amorphous anhydrate prepared by the method described in Example B-6, was used for preparation of aroma-retaining material. “ISOELEAT P™”, a branched cyclodextrin commercialized by Maruha corporation, Tokyo, Japan, anhydrous trehalose prepared by the method described in Japanese Patent Kokai No. 111,284/97, “PINEFIBRE™”, a dextrin commercialized by Matsutani Chemical Industries Co., Ltd., Tokyo, Japan, or soluble starch in a reagent grade commercialized by Katayama Chemical Industries, Co., Ltd., Tokyo, Japan, was dried in vacuo at 80° C. for 16 hours as control saccharides. […] The resulting mixture was weighed. The weight of ethanol or acetic acid was calculated by subtracting the pre-measured saccharide weight. The weight of ethanol or acetic acid adsorbed on 1 g of each saccharide was in Table 1.

[2] = Effect of suppressing volatilization: retained ethanol by gas chromatography (Example C-2); conditions: for Amount of Retained Ethanol: per 1 g of material
Method: About 5 g of an ethanol-retaining material with CTS crystalline anhydrate, branched cyclodextrin, anhydrous trehalose, or dextrin, prepared freshly by the method described in Example C-1, was taken into a 20 ml volume of glass vials. The vials were placed under normal pressure and room temperature for the purpose of evaporating ethanol. The amount of retained ethanol in samples freshly prepared, or after two hours later, four hours later, eight hours later, or 24 hours later, was measured by dissolving each sample in about 10 ml of water, diluting it with water to give a volume of 100 ml in a glass measuring flask, and measuring the amount of ethanol dissolved in the resulting aqueous solution by a gas chromatography. In the case of a soluble starch as a sample, additional centrifuging was carried out after diluting up to 100 ml. The above gas chromatography was carried out using “GC-14B” (a gas liquid chromatography commercialized by Shimazu Corporation, Kyoto, Japan) equipped with “TC-5” (a capillary column sized 0.53 mm in diameter and 15 m in length, commercialized by GL Sciences Inc., Tokyo, Japan). The amount of retained ethanol per 1 g of each material is in Table 2.
In this table, each value in the parentheses means a relative percentage to the ethanol amount (100%) just after its preparation.

[3] = Adsorption and 10-day retention of lavender oil, citronellol or phenethyl alcohol on saccharides (Example C-4); conditions: for Amount of the Adsorbed Substance: freshly prepared sample; for Relative Amount of the Retained Substance: preserved at 25° C. for 10 days vs freshly prepared
Text: The following example is a test to confirm the effect of CTS crystalline hydrate, CTS crystalline anhydrate, or CTS amorphous anhydrate on retaining, as an aromatic substance, lavender oil, citronellol, or phenethyl alcohol. CTS crystalline pentahydrate prepared by the method described in Example B-3, CTS crystalline anhydrate in Example B-5, and CTS amorphous anhydrate in Example B-6 were used as the test saccharides “ISOELEAT P®”, a branched cyclodextrin commercialized by Maruha Corporation, Tokyo, Japan, was used as a control.
In the case of lavender oil, five parts by weight of each of the above saccharides were taken into a glass dish sized 90 mm in diameter and 20 mm in depth, admixed with one part by weight of lavender oil by stirring. Lavender oil was measured by the method described as follows; admixing 2 ml of diethyl ether with 1 g of each of the above samples freshly prepared or after preserved at 25° C. for 10 days; measuring the extracted lavender oil by gas chromatography using “GC-14B” (a gas chromatography commercialized by Shimazu corporation, Kyoto, Japan) equipped with “TC-Wax” (a capillary column sized 0.53 mm in diameter and 25 m in length commercialized by GL Sciences Inc., Tokyo, Japan.
In the case of citronellol or phenethyl alcohol, five parts by weight of each of the above saccharides were taken into a glass dish sized 90 mm in diameter and 20 mm in depth, admixed with one part by weight of citronellol or phenethyl alcohol, and mixed by stirring. The adsorbed citronellol or phenethyl alcohol was measured by admixing 2 ml of diethyl ether with 1 g of each of the above sample freshly prepared or after preserved at 25° C. for 10 days, and measuring the extracted lavender oil by gas chromatography using “GC-14B” (a gas chromatography device commercialized by Shimazu corporation, Kyoto, Japan) equipped with “DB-5” (a capillary column sized 0.25 mm in diameter and 30 m in length commercialized by GL Sciences Inc., Tokyo, Japan).
The amount of the retained aromatic substance in each sample was calculated using the following formula, and the results were shown in Table 4.
Formula: Relative amount of the retained Substance (%)={(an amount of aromatic substance in a sample preserved for 10 days)/(an amount of aromatic substance in a freshly prepared sample)}×100

[4] = 2 h later, normal pressure, room temperature
[5] = 4 h later, normal pressure, room temperature
[6] = 8 h later, normal pressure, room temperature
[7] = 24 h later, normal pressure, room temperature
[8] = citronellol, listed as Sample 2
[9] = lavender oil, listed as Sample 2
[10] = phenethyl alcohol, listed as Sample 2

SMILES: OC[C@H]1O[C@H](O[C@H]2O[C@H](CO)[C@@H](O)[C@H](O)[C@H]2O)[C@H](O)[C@@H](O)[C@@H]1O [Anhydrous trehalose, reference compound]
- Amount of Adsorbed Acetic Acid [1]: 0.18 g
- Amount of Adsorbed Ethanol [1]: 0.25 g
- Relative percentage to the ethanol amount just after preparation ([2]; 2 h later): (51%)
- Relative percentage to the ethanol amount just after preparation ([2]; 4 h later): (8%)
- Relative percentage to the ethanol amount just after preparation ([2]; 8 h later): (4%)
- Relative percentage to the ethanol amount just after preparation ([2]; 24 h later): (2%)
- Relative percentage to the ethanol amount just after preparation ([2]; freshly prepared): (100%)
- Amount of Retained Ethanol [2, 4]: 103 mg
- Amount of Retained Ethanol [2, 5]: 17 mg
- Amount of Retained Ethanol [2, 6]: 8 mg
- Amount of Retained Ethanol [2, 7]: 5 mg
- Amount of Retained Ethanol ([2]; freshly prepared): 203 mg

SMILES: OCC1OC2OCC3O[C@H](O[C@H]4C(O)C(CO)OC(OCC5O[C@H](O[C@@H](C1O)C2O)C(O)C(O)[C@@H]5O)C4O)C(O)C(O)[C@@H]3O (some centres unmarked) [CTS crystalline anhydrate]
- Amount of Adsorbed Acetic Acid [1]: 0.47 g
- Amount of Adsorbed Ethanol [1]: 0.50 g
- Relative percentage to the ethanol amount just after preparation ([2]; 2 h later): (101%)
- Relative percentage to the ethanol amount just after preparation ([2]; 4 h later): (87%)
- Relative percentage to the ethanol amount just after preparation ([2]; 8 h later): (3%)
- Relative percentage to the ethanol amount just after preparation ([2]; 24 h later): (2%)
- Relative percentage to the ethanol amount just after preparation ([2]; freshly prepared): (100%)
- Amount of Retained Ethanol [2, 4]: 335 mg
- Amount of Retained Ethanol [2, 5]: 290 mg
- Amount of Retained Ethanol [2, 6]: 10 mg
- Amount of Retained Ethanol [2, 7]: 5 mg
- Amount of Retained Ethanol ([2]; freshly prepared): 333 mg
- Adsorbing capability relative to branched cyclodextrin ([3]; citronellol): about 1.2 fold
- Amount of the Adsorbed Substance ([3]; citronellol): 195 mg/g saccharide
- Amount of the Adsorbed Substance [3, 8]: 195 mg/g saccharide
- Relative Amount of the Retained Substance [3, 8]: 42%
- Adsorbing capacity relative to branched cyclodextrin ([3]; lavender oil): about 1.3 fold
- Amount of the Adsorbed Substance ([3]; lavender oil): 190 mg/g saccharide
- Amount of the Adsorbed Substance [3, 9]: 190 mg/g saccharide
- Relative Amount of the Retained Substance [3, 9]: 12%
- Amount of the Adsorbed Substance ([3]; phenethyl alcohol): 190 mg/g saccharide
- Amount of the Adsorbed Substance [3, 10]: 190 mg/g saccharide
- Relative Amount of the Retained Substance [3, 10]: 16%
